Source: patent US9540647B2, “Methods and compositions for the treatment of cancer” (University of South Alabama, priority 2010, dated 2017)
Entries after “also recorded” stand apart in the source; their conditions may differ. Read-outs that look alike come from different tables or passages of the source. Starred links: 1 amine or outer side, 2 acyl side, 3 side chain; linkers in the order of their positions; H or OH if unused. Positions of bridges follow the written chain, without caps; N, C: chain ends. Non-standard residues stand in square brackets, D forms with d. Residues, ends and D or L forms follow the SMILES beside them. Chains are numbered I, II in the order given. Actinocin(9to1) = Cc1c2oc3c(C)ccc(C(=O)[*:1])c3nc-2c(C(=O)[*:2])c(N)c1=O; NMeV = CN[C@H](C(=O)O)C(C)C; Nle = CCCC[C@H](N)C(=O)O; Sar = CNCC(=O)O

How the values were obtained:
[1] = system: ERCC1; settings: A2780-CP70; cited from earlier work
[2] = system: OPN promoter; experiment: OPN promoter luciferase reporter assay in metastatic melanoma cell lines; assay type: cell-based, human; settings: MCC012A and MCC012F cell lines; tomatidine
Description: Empty pGL3 vector was used as control. […] Readings were normalized to total protein content. Each parameter was studied in triplicate and the experiment repeated at least 3 times. The data are represented as percent luciferase activity, which was derived as a percent of the relative light units in treated groups compared with the untreated groups.

[3] = system: c-jun; experiment: c-jun and c-fos protein expression and c-jun phosphorylation in A2780-CP70 cells (Western blot); assay type: cell-based, human; settings: IC50 dose of cisplatin
Method: c-jun protein expression was assessed in cisplatin-treated A2780-CP70 cells using Western blot analysis.
Protein expression of c-fos and phosphorylation of c-jun in cyclopamine-treated A2780-CP70 cells was assessed using Western blot analysis. Protein levels for c-jun, c-fos, phosphorylated c-jun (Ser 63), phosphorylated c-jun (Ser 73), and phosphorylated c-jun (Thr 91, Thr 93) were tested in cytosolic, nuclear, and whole cell fractions at 0 hr, 6 hr, 24 hr, 48 hr, and 72 hr. Internal controls for cytosolic and nuclear fractions included α-tubulin and histone deacetylase 3.
Phosphorylation of c-jun in A2780-CP70 cells transfected with anti-GLI1 shRNA construct was assessed using Western blot analysis. Protein levels for c-jun, phosphorylated c-jun (Ser 63), phosphorylated c-jun (Ser 73), and phosphorylated c-jun (Thr 91, Thr 93) were examined at 0 hr, 6 hr, 24 hr, 48 hr, and 72 hr.

[4] = system: ERCC1, XPD, XRCC1; experiment: ERCC1, XPD and XRCC1 mRNA levels in A2780-CP70 cells (semi-quantitative PCR); assay type: cell-based, human; settings: cells treated with cisplatin
[5] = system: A2780-CP70 cells; settings: A2780-CP70, cisplatin-resistant; cited from earlier work
[6] = system: c-jun; settings: cited from earlier work
[7] = system: ERCC1, XPD, XRCC1; settings: cited from earlier work; for ERCC1, XPD, or XRCC1 regulation: previous experiments, agents at IC50 doses
[8] = system: A2780-CP70 cells; experiment: Cisplatin sensitivity of A2780-CP70 cells (percent cell growth); settings: read-out: IC50 of cisplatin
Method: Controls included α-tubulin and histone deactylase.
Transfected cells were treated with 0 μM, 2 μM, 5 μM, 10 μM, 30 μM, and 50 μM cisplatin at 24 hr post-transfection.

[9] = system: MDA-MB-435 (435) and SUM1315 (1315) cells; experiment: Drug sensitivity of cells transfected with shRNA to GLI1 (MTS assay); assay type: cell-based, human; settings: cells transfected with shRNA to GLI1 vs empty vector; 24 hours
Method: MDA-MB-435 (435) and SUM1315 (1315) cells were transfected with either empty vector (vec) or with vector encoding shRNA to GLI1 (shGLI1). Cells were treated with the indicated concentrations of drugs for 24 hours and viability was assessed using an MTS assay (FIG. 62A-FIG. 62C). […] Using real-time quantitative RT-PCR the GLI1 shRNA brings about a decrease of about 50% in the expression of ABCB1 (MDR1) and 90% decrease in ABCG2 (BCRP).

[10] = system: GLI1-knocked down MDA-MB-435 cells; experiment: Migration, invasion and motility of GLI1-knocked down cells with OPN add-back; assay type: cell-based, human
Method: Motility Assay—These experiments were performed as previously described (Shevde, L. A., et al. (2006) Clin. Exp. Metastasis 23, 123-133). Images were acquired at T0, the reading at the initial time, and at T10 (10 h later). The experiment was conducted in duplicate and cell motility was calculated as (T0−T10)/T0, which represents the rate of movement over a 10-h period. For OPN add-back experiments the cells were pretreated for 12 h with 100 ng/ml human OPN (recombinant R & D Systems) and the assay conducted in the presence of OPN. Each experimental group was assessed in duplicate and data were recorded in three fields per well. Thus, six data points were recorded and analyzed per experimental group.
Invasion and Migration Assays—These experiments were performed as previously outlined (18) using a modified Boyden chamber assay. OPN add-back experiments for migration and invasion were conducted as described above with an additional step of pre-treating the cells for 24 h with rOPN. OPN was added to the upper and lower chambers (100 ng/ml) to ensure the OPN was present during the entire duration of the experiment. Each experimental group was assessed as three independent replicates.

[11] = system: RAW264.7 cells; experiment: Osteoclast differentiation (TRAP assay); assay type: cell-based, murine; settings: DM supplemented with OPN (100 ng/ml) or SHH (100 nM) vs DM
Method: Cell lines—Human metastatic breast cancer cells, MDA-MB-231, were cultured in Dulbecco's Modified Eagle's Medium (DMEM/F12; Invitrogen, Carlsbad, Calif.), supplemented with 2 mM L-glutamine, 1 mM sodium pyruvate, 0.02 mM non-essential amino acids, 5% fetal bovine serum, FBS (Atlanta Biologicals, Norcross, Ga.), without antibiotics or antimycotics (cDME/F12). SUM1315 and SUM159 cells (DiMeo, T. A., et al. (2009) Cancer Res 69, 5364-5373) (Asterand, Detroit, Mich.) were cultured in DMEM/F12 supplemented with […], 5% FBS (Atlanta Biologicals) and either 10 ng/ml EGF or 1 ng/ml hydrocortisone, without antibiotics or antimycotics. The SUM1315 cells are derived from a metastasis in a patient with infiltrating ductal carcinoma; SUM159 cells were derived from a primary breast tumor with metaplastic carcinoma. RAW264.7 (ATCC, TIB 71) cells, a murine pre-osteoclastic line capable of differentiation and […] in culture (in presence of RANKL and MCSF), were grown in DMEM with L-glutamine (ATCC, 30-2002) supplemented with 10% FBS. A 2× differentiation medium (DM) was formulated for the RAW 264.7 cells comprising RAW264.7 growth medium supplemented with 20% FBS, RANKL (100 ng/ml) and M-CSF (40 ng/ml) (Matsubara, T., et al. J Bone Miner Res 25, 1068-1076). Conditioned media was harvested from breast cancer cells and mixed in a 1:1 ratio with double strength differentiation medium to assess the effect on osteoclast differentiation. 1×DM was used as control or wherever SHH (R & D Systems, Minneapolis, Minn.) or OPN (R & D Systems) was used alone. The medium on the RAW264.7 cells was replenished every 48 hours. In order to assess the effect of secreted Hh ligands, the neutralizing 5E1 antibody was used (Developmental Studies Hybridoma Bank, at the University of Iowa, Iowa). […] Medium was supplemented with 5E1 (2.5 μg/ml) and was changed on alternate days until the end of the experiment. The effect of OPN on osteoclast activity was assessed by transfecting an OPN shRNA-expressing construct on day 6 post-induction of differentiation. Fresh DM was added the following day and cells were allowed to grow for another 12 hours before termination of experiment. GLI1 expression was silenced in the SUM1315 cells using shRNA targeting GLI1 into pSuperior. gfp+neo (Oligoengine, WA, USA). Silencing of OPN expression was done using OPN-targeting shRNA cloned into pSuper (Oligoengine)
Osteoclast differentiation and activity assays—Tartarate-resistant acid phosphatase (TRAP) assay was conducted for RAW 264.7 following the manufacturer's protocol (Sigma, St. Louis, Mo.). This assay was indicative of the extent of differentiation. […] The percentage of area resorbed was calculated using the NIS-Elements BR. […]

[12] = system: RAW264.7 cells; experiment: Osteoclast resorption activity (OAAS plates); assay type: cell-based, murine; settings: DM with OPN (100 ng/ml) or SHH (100 nM)
Method: Osteoclast differentiation and activity assays—Tartarate-resistant acid phosphatase (TRAP) assay was conducted for RAW 264.7 following the manufacturer's protocol (Sigma, St. Louis, Mo.). This assay was indicative of the extent of differentiation. OAAS plates (Osteogenic Core Technologies, Choongnam, Republic of Korea) were utilized to measure osteoclastic activity. RAW 264.7 cells (25×103) were inoculated in 48-well plates. Cells were treated with serum-free conditioned media from breast cancer cells or 100 nM SHH or 100 ng/ml OPN on the following day. Media was changed every two days and the experiments were terminated either on day 6 (day 7 for knockdown experiments, with transfections being done on the sixth day). At the completion, cells were detached with 5% sodium hypochlorite and the wells were observed under a Nikon Eclipse TS 100 microscope at 10× magnification. […] The percentage of area resorbed was calculated using the NIS-Elements BR. 3.1 software.

## CC[C@H](C)[C@@H]1NC(=O)CNC(=O)[C@@H]2Cc3c([nH]c4cc(O)ccc34)[S+]([O-])C[C@@H](NC(=O)CNC1=O)C(=O)N[C@@H](CC(N)=O)C(=O)N1C[C@H](O)C[C@H]1C(=O)N[C@@H]([C@@H](C)[C@@H](O)CO)C(=O)N2 (stereo in doubt) [α-amanitin]
[1]
  ERCC1 up-regulation after cisplatin exposure: blunted ERCC1 up-regulation

## CCCC[C@@H](C=O)NC(=O)[C@H](CC(C)C)NC(=O)[C@H](CC(C)C)NC(C)=O [N-acetyl-leucyl-leucyl-norleucinal] (Ac-Leu-Leu-[Nle]-aldehyde)
[1]
  ERCC1 up-regulation after cisplatin exposure: blunted ERCC1 up-regulation

## Cc1cc(C)c(/C=C2\C(=O)Nc3ccccc32)[nH]1 [SU5416]
[1]
  ERCC1 up-regulation after cisplatin exposure: blunted ERCC1 up-regulation

## C[C@H]1CC[C@]2(NC1)O[C@H]1C[C@H]3[C@@H]4CC[C@H]5C[C@@H](O)CC[C@]5(C)[C@H]4CC[C@]3(C)[C@H]1[C@@H]2C [Tomatidine, tomatidine]
[2]
  promoter activity of OPN: no effect

## Cc1c2oc3c(C)ccc(C(=O)N[C@@H]4C(=O)N[C@H](C(C)C)C(=O)N5CCC[C@H]5C(=O)N(C)CC(=O)N(C)[C@@H](C(C)C)C(=O)O[C@@H]4C)c3nc-2c(C(=O)N[C@@H]2C(=O)N[C@H](C(C)C)C(=O)N3CCC[C@H]3C(=O)N(C)CC(=O)N(C)[C@@H](C(C)C)C(=O)O[C@@H]2C)c(N)c1=O [actinomycin D] (I: T[dV]P[Sar][NMeV] / II: T[dV]P[Sar][NMeV]; ester I:1-I:C, II:1-II:C; linker I:N-II:N via Actinocin(9to1))
[1]
  ERCC1 up-regulation after cisplatin exposure: blunted ERCC1 up-regulation

## [Cr] [chromium]
[1]
  ERCC1 up-regulation after cisplatin exposure: blunted ERCC1 up-regulation

## N.N.[Cl][Pt][Cl] [cisplatin]
[3]
  c-jun protein expression: increased substantial between 0-6 hr
[4]
  expression levels of ERCC1, XPD, and XRCC1 proteins, increase: 5 fold
[5]
  IC50: ~40 µM
[6]; 3-5 hr after cisplatin treatment
  phosphorylation of c-jun protein, peak over baseline: 15 fold
[6]; after cisplatin exposure
  time of peak c-jun (Ser 63/73) protein levels: 3 to 5 h
[7]; cells treated with cisplatin only
  expected increase in ERCC1 mRNA levels: 6 fold
[7]; cisplatin-treated cells (14 hr in untreated cells)
  ERCC1 mRNA half-life: 24 h
[7]
  ERCC1, XPD, or XRCC1 regulation: up-regulated
[8]; cells transfected with 0.07 μg/well anti-Gli1 shRNA construct, cisplatin at 24 hr post-transfection
  IC50: 8 µM
[8]; control cells
  IC50: 28 µM

## C[C@@H]1C[C@@H]([C@H](O)CC2CC(=O)NC(=O)C2)C(=O)[C@@H](C)C1 [cycloheximide]
[1]
  ERCC1 up-regulation after cisplatin exposure: blunted ERCC1 up-regulation

## COc1cccc2c1C(=O)c1c(O)c3c(c(O)c1C2=O)C[C@@](O)(C(=O)CO)C[C@@H]3O[C@H]1C[C@H](N)[C@H](O)[C@H](C)O1 [doxorubicin]
[9]
  sensitivity to drug (viability, MTS assay): increased sensitivity

## CO[C@H]1[C@@H](OC)C[C@H](C)[C@@H](OC)C2=CC(=O)C=C(NC(=O)/C(C)=C/C=C\[C@H](OC)[C@@H](OC(N)=O)/C(C)=C/[C@@H]1C)C2=O [herbimycin A]
[1]
  ERCC1 up-regulation after cisplatin exposure: blunted ERCC1 up-regulation

## CC(=O)N[C@@H](CSC(=O)[C@]1([C@@H](O)C(C)C)NC(=O)[C@H](C)[C@@H]1O)C(=O)O [lactacystin]
[1]
  ERCC1 up-regulation after cisplatin exposure: blunted ERCC1 up-regulation

## CCCCCCCCCCCCCC(=O)O[C@@H]1[C@@H](C)[C@@]2(O)[C@@H](C=C(CO)C[C@]3(O)C(=O)C(C)=C[C@@H]23)[C@@H]2C(C)(C)[C@]12OC(C)=O [phorbol ester]
[7]
  ERCC1, XPD, or XRCC1 regulation: up-regulated

## [Pt] [platinum]
[1]
  ERCC1 up-regulation after cisplatin exposure: blunted ERCC1 up-regulation

## CC(=O)O[C@H]1C(=O)[C@@]2(C)[C@H]([C@H](OC(=O)c3ccccc3)[C@]3(O)C[C@H](OC(=O)[C@H](O)[C@@H](NC(=O)c4ccccc4)c4ccccc4)C(C)=C1C3(C)C)[C@]1(OC(C)=O)CO[C@@H]1C[C@@H]2O [taxol]
[9]
  sensitivity to drug (viability, MTS assay): increased sensitivity

## OPN: recombinant human osteopontin (R & D Systems)
[10]; KO1 and KO4 cells in presence of recombinant OPN
  cell motility (wound healing assay): restored
[10]; KO1 and KO4 cells, OPN 100 ng/ml vs untreated
  cell invasion through Matrigel: significantly larger numbers
[10]; KO1 and KO4 cells, OPN 100 ng/ml vs untreated, modified Boyden chamber
  cell migration: significantly larger numbers
[11]
  numbers of multinucleate TRAP-positive cells: stimulate osteoclast differentiation; also recorded: significantly (* indicates p<0.005) increases
[12]
  resorption activity of differentiated osteoclasts: significantly (* indicates p<0.001) increases the resorption activity

B1: interleukin 1-α (protein, UniProt P01583 113-271, looked up)
Interleukin-1 alpha: SAPFSFLSNVKYNFMRIIKYEFILNDALNQSIIRANDQYLTAAALHNLDEAVKFDMGAYKSSKDDAKITVILRISKTQLYVTAQDEDQPVLLKEMPEIPKTITGSETNLLFFWETHGTKNYFTSVAHPNLFIATKQDYWVCLAGGPPSITDFQILENQA
[1]
  ERCC1 up-regulation after cisplatin exposure: blunted ERCC1 up-regulation
